Results as given in PubChem BioAssay AID248 (DTP/NCI, 2004).
Several values for one entry are separate records, joined by “and”; a condition that tells them apart may be missing. Equal entries are not always repeated. Toxic doses and inconclusive results are not listed. Rule as the data show it: active = T/C of 150% or more; inactive = T/C below 125%.

Test system: L1210 leukemia ip in BDF1 mice, survival T/C
Experiment: NCI In Vivo Anticancer Drug Screen. Data for tumor model L1210 Leukemia (intraperitoneal) in B6D2F1 (BDF1) mice
Settings: endpoint: mean survival time, higher = longer survival
How it was run: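 Ratio derived from survival: compound-dosed mice over vehicle-dosed mice, all bearing a transplantable tumor.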

[1] = dose: 100.0 mg/kg/injection, schedule: Q01DX009 (ip), vehicle: saline with Tween-80
[2] = dose: 100.0 mg/kg/injection, schedule: Q04DX003 (ip), vehicle: saline with Tween-80
[3] = dose: 200.0 mg/kg/injection, schedule: Q01DX009 (ip), vehicle: saline with Tween-80
[4] = dose: 200.0 mg/kg/injection, schedule: Q04DX003 (ip), vehicle: saline with Tween-80
[5] = dose: 400.0 mg/kg/injection, schedule: Q01DX009 (ip), vehicle: saline with Tween-80
[6] = dose: 400.0 mg/kg/injection, schedule: Q04DX003 (ip), vehicle: saline with Tween-80
[7] = dose: 100.0 mg/kg/injection, schedule: Q01DX009 (ip), vehicle: Klucel (hydroxypropylcellulose) (HPC)
[8] = dose: 100.0 mg/kg/injection, schedule: Q04DX003 (ip), vehicle: Klucel (hydroxypropylcellulose) (HPC)
[9] = dose: 200.0 mg/kg/injection, schedule: Q01DX009 (ip), vehicle: Klucel (hydroxypropylcellulose) (HPC)
[10] = dose: 200.0 mg/kg/injection, schedule: Q04DX003 (ip), vehicle: Klucel (hydroxypropylcellulose) (HPC)
[11] = dose: 400.0 mg/kg/injection, schedule: Q01DX009 (ip), vehicle: Klucel (hydroxypropylcellulose) (HPC)
[12] = dose: 400.0 mg/kg/injection, schedule: Q04DX003 (ip), vehicle: Klucel (hydroxypropylcellulose) (HPC)
[13] = dose: 100.0 mg/kg/injection, schedule: Q01DX001 (ip), vehicle: carboxymethylcellulose (CMC)
[14] = dose: 200.0 mg/kg/injection, schedule: Q01DX001 (ip), vehicle: carboxymethylcellulose (CMC)
[15] = dose: 400.0 mg/kg/injection, schedule: Q01DX001 (ip), vehicle: carboxymethylcellulose (CMC)
[16] = dose: 50.0 mg/kg/injection, schedule: Q01DX009 (ip), vehicle: Klucel (hydroxypropylcellulose) (HPC)

Measured: T/C

Nc1nc(N)c2nc(CNc3ccc(C(=O)NCC(=O)O)cc3)cnc2n1
inactive: dose: 5.0 mg/kg/injection, schedule: Q01DX009 (ip), vehicle: Klucel (hydroxypropylcellulose) (HPC) 93 % of control | dose: 10.0 mg/kg/injection, schedule: Q01DX009 (ip), vehicle: Klucel (hydroxypropylcellulose) (HPC) 101 % of control | dose: 20.0 mg/kg/injection, schedule: Q01DX009 (ip), vehicle: Klucel (hydroxypropylcellulose) (HPC) 109 % of control | dose: 40.0 mg/kg/injection, schedule: Q01DX009 (ip), vehicle: Klucel (hydroxypropylcellulose) (HPC) 105 % of control

CN(C)C(=NN=C(N(C)C)N(C)C)N(C)C
inactive: dose: 12.5 mg/kg/injection, schedule: Q04DX003 (sc), vehicle: saline 102 % of control | dose: 25.0 mg/kg/injection, schedule: Q04DX003 (sc), vehicle: saline 107 % of control | dose: 50.0 mg/kg/injection, schedule: Q04DX003 (sc), vehicle: saline 100 % of control | dose: 100.0 mg/kg/injection, schedule: Q04DX003 (sc), vehicle: saline 98 % of control

COC1(c2ccc(C(F)(F)F)cc2)OC1(C)C (stereo not given)
inactive: [1] 98 % of control | [2] 96 % of control | [3] 100 % of control | [4] 102 % of control | [5] 104 % of control | [6] 102 % of control

Cc1cc(N(C)C)c([N+](=O)[O-])cc1C=O
inactive: [7] 98 % of control | [8] 100 % of control | [9] 96 % of control | [10] 94 % of control | [11] 96 % of control | [12] 94 % of control

C=C(C)C(=O)[O][Sn]([CH2]CCC)([CH2]CCC)[CH2]CCC
inactive: dose: 0.39 mg/kg/injection, schedule: Q01DX009 (ip), vehicle: saline 98 % of control | dose: 0.78 mg/kg/injection, schedule: Q01DX009 (ip), vehicle: saline 105 % of control | dose: 1.56 mg/kg/injection, schedule: Q01DX009 (ip), vehicle: saline 94 % of control | dose: 6.25 mg/kg/injection, schedule: Q01DX009 (ip), vehicle: saline 92 % of control

CCCCCCCC/C=C\CCCCCCCC(=O)OCCCCCCCCCCCCCCCCC
inactive: dose: 75.0 mg/kg/injection, schedule: Q01DX009 (ip), vehicle: saline sonified 106 % of control | [7] 94 % of control | dose: 150.0 mg/kg/injection, schedule: Q01DX009 (ip), vehicle: saline sonified 104 % of control | [9] 91 % of control | dose: 300.0 mg/kg/injection, schedule: Q01DX009 (ip), vehicle: saline sonified 96 % of control | [11] 110 % of control

CCCC(CCC)(C(N)=O)c1ccc(OC)cc1
inactive: [13] 87 % of control | [14] 98 % of control | [15] 93 % of control

O=C(O)C12CCC(CC1)C1CCC2CC1
inactive: dose: 12.5 mg/kg/injection, schedule: Q04DX002 (ip), vehicle: Klucel (hydroxypropylcellulose) (HPC) 101 % of control | dose: 25.0 mg/kg/injection, schedule: Q04DX002 (ip), vehicle: Klucel (hydroxypropylcellulose) (HPC) 105 % of control | dose: 50.0 mg/kg/injection, schedule: Q04DX002 (ip), vehicle: Klucel (hydroxypropylcellulose) (HPC) 116 % of control

C(=N\Nc1nnn(Cc2ccccc2)n1)/c1ccccc1
inactive: [1] 95 % of control | [2] 110 % of control | [3] 102 % of control | [4] 102 % of control | [5] 93 % of control | [6] 90 % of control

CCOc1ccc(NC(=O)NCCBr)cc1
inactive: dose: 50.0 mg/kg/injection, schedule: Q01DX009 (ip), vehicle: saline with Tween-80 94 % of control | [1] 94 % of control

C/C(=N\Nc1nc2ccccc2s1)c1ccncc1
inactive: [16] 101 % of control | [7] 100 % of control | [9] 107 % of control | [11] 101 % of control

CCC(=O)O[C@H]1CC[C@H]2[C@@H]3CCC4=CC(=O)CC[C@]4(C)[C@H]3CC[C@]12C
inactive: dose: 125.0 mg/kg/injection, schedule: Q01DX Z (sc), vehicle: steriod suspending solution 101 % of control and 106 % of control | dose: 250.0 mg/kg/injection, schedule: Q01DX Z (sc), vehicle: steriod suspending solution 97 % of control and 112 % of control | dose: 500.0 mg/kg/injection, schedule: Q01DX Z (sc), vehicle: steriod suspending solution 101 % of control and 103 % of control | dose: 500.0 mg/kg/injection, schedule: Q01DX Z (sc), vehicle: water 95 % of control | dose: 1000.0 mg/kg/injection, schedule: Q01DX Z (sc), vehicle: steriod suspending solution 100 % of control | dose: 1000.0 mg/kg/injection, schedule: Q01DX Z (sc), vehicle: water 97 % of control

c1ccc(C(c2ccccc2)[Si](c2ccccc2)(c2ccccc2)C(c2ccccc2)c2ccccc2)cc1
inactive: dose: 25.6 mg/kg/injection, schedule: Q04DX002 (ip), vehicle: saline with Tween-80 107 % of control | [16] 90 % of control | dose: 64.0 mg/kg/injection, schedule: Q04DX002 (ip), vehicle: saline with Tween-80 100 % of control | [7] 86 % of control | [2] 94 % of control | dose: 160.0 mg/kg/injection, schedule: Q04DX002 (ip), vehicle: saline with Tween-80 100 % of control | [9] 88 % of control | [4] 96 % of control | dose: 400.0 mg/kg/injection, schedule: Q04DX002 (ip), vehicle: saline with Tween-80 110 % of control | [6] 91 % of control

Cc1ccc(C)c(NC(=O)Oc2ccc(Cl)cc2Cl)c1
inactive: dose: 25.0 mg/kg/injection, schedule: Q01DX009 (ip), vehicle: Klucel (hydroxypropylcellulose) (HPC) 87 % of control | [16] 100 % of control | [7] 110 % of control | [8] 90 % of control | [10] 94 % of control | [12] 106 % of control

NC(=O)C1(Nc2ccc(-c3ccc(I)cc3)cc2)CCCC1
inactive: dose: 50.0 mg/kg/injection, schedule: Q01DX001 (ip), vehicle: carboxymethylcellulose (CMC) 86 % of control | [13] 86 % of control | [14] 86 % of control | [15] 90 % of control

COc1c(Br)cc(C(=O)C(C)C)c(O)c1C
inactive: dose: 75.0 mg/kg/injection, schedule: Q04DX003 (ip), vehicle: Klucel (hydroxypropylcellulose) (HPC) 95 % of control | dose: 150.0 mg/kg/injection, schedule: Q04DX003 (ip), vehicle: Klucel (hydroxypropylcellulose) (HPC) 103 % of control | dose: 300.0 mg/kg/injection, schedule: Q04DX003 (ip), vehicle: Klucel (hydroxypropylcellulose) (HPC) 95 % of control

O=C(O)c1ccc2c3c(ccc([N+](=O)[O-])c13)C=C2
inactive: [2] 96 % of control | [4] 94 % of control | [6] 103 % of control
